# Several values for one entry are separate records, joined by “and”; a condition that tells them apart may be missing. Equal entries are not always repeated. Where two headings read alike, the source gives them in different places.
# Key:
# Assay type in all cases: cell-based
# [1] = target: T1, protein kinases (human kinome) (Homo sapiens, UniProt Q96L34); conditions: for logFC MARK4: Accession Q96L34-1
# T1 sequence (Q96L34 1-752): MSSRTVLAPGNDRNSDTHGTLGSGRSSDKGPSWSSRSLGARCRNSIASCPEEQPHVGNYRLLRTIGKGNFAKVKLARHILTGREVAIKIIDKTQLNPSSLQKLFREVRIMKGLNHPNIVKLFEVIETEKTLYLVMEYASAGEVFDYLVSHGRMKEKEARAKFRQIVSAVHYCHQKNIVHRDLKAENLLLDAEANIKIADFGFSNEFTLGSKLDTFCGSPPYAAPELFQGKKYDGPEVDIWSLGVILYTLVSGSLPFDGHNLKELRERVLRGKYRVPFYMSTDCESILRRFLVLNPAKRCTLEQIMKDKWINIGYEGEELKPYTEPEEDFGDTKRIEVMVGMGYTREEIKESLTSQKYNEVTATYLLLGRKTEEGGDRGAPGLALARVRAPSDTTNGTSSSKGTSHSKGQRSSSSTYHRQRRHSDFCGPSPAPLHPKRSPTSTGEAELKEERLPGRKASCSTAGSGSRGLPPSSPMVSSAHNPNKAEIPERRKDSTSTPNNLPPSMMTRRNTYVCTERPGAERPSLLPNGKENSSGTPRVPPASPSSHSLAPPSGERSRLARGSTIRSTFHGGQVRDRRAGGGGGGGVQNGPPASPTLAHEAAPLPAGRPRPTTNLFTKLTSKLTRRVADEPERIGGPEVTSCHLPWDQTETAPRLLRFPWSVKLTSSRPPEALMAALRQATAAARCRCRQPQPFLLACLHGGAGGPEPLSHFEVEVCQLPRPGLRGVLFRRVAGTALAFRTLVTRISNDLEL
# [2] = target: protein kinases (human kinome) (Homo sapiens, UniProt Q14289); conditions: for logFC: PTK2B (Q14289-1) protein abundance, degrader vs DMSO, down; for logFC PTK2B: accession Q14289-1, direction of change down
# [3] = target: protein kinases (human kinome) (Homo sapiens, UniProt Q16539); conditions: for logFC MAPK14: MAPK14, accession Q16539, direction of change down
# [4] = target: protein kinases (human kinome) (Homo sapiens, UniProt P24941)
# [5] = target: T2, protein kinases (human kinome) (Homo sapiens, UniProt P33981); conditions: experiment wp076; for logFC TTK: Accession P33981
# T2 sequence (P33981 1-857): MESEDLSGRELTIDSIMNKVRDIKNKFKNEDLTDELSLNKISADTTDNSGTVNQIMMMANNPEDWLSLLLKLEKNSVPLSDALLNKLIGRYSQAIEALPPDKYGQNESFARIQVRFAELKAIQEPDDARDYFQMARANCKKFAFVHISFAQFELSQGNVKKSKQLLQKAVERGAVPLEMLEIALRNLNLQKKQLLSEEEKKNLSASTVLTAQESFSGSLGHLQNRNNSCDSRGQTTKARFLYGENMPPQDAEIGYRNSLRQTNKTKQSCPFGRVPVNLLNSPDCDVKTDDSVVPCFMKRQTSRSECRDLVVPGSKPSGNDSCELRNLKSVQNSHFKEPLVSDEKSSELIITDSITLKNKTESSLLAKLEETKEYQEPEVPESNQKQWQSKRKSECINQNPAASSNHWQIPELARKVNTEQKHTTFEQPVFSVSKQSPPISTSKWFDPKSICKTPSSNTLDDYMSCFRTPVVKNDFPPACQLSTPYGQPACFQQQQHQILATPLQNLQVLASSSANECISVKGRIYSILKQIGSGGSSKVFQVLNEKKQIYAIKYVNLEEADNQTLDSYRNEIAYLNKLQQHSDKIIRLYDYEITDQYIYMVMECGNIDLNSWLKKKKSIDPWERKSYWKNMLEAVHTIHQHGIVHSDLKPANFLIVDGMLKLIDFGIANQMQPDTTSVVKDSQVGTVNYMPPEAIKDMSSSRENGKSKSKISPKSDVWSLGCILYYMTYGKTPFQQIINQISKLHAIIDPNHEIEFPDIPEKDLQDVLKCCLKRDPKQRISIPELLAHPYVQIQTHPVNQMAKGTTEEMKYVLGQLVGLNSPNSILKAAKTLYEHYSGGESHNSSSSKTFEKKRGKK
# [6] = target: protein kinases (human kinome) (Homo sapiens, UniProt Q00535); conditions: for logFC of CDK5: Accession Q00535
# [7] = MAPK14 (Q16539) protein abundance, degrader vs DMSO, down
# [8] = experiment wp016, direction of change down
# protein kinases (human kinome) (Homo sapiens, UniProt Q16539), sequence (Q16539 whole entry): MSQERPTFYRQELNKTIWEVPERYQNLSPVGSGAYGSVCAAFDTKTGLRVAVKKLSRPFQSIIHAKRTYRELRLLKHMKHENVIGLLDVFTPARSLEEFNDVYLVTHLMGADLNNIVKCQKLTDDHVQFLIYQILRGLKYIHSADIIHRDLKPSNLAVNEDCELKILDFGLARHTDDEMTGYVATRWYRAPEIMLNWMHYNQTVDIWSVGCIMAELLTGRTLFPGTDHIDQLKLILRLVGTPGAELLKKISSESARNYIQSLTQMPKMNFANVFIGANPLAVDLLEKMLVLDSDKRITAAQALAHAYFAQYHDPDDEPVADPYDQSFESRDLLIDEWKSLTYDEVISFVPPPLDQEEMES
# protein kinases (human kinome) (Homo sapiens, UniProt Q14289), sequence (Q14289 whole entry): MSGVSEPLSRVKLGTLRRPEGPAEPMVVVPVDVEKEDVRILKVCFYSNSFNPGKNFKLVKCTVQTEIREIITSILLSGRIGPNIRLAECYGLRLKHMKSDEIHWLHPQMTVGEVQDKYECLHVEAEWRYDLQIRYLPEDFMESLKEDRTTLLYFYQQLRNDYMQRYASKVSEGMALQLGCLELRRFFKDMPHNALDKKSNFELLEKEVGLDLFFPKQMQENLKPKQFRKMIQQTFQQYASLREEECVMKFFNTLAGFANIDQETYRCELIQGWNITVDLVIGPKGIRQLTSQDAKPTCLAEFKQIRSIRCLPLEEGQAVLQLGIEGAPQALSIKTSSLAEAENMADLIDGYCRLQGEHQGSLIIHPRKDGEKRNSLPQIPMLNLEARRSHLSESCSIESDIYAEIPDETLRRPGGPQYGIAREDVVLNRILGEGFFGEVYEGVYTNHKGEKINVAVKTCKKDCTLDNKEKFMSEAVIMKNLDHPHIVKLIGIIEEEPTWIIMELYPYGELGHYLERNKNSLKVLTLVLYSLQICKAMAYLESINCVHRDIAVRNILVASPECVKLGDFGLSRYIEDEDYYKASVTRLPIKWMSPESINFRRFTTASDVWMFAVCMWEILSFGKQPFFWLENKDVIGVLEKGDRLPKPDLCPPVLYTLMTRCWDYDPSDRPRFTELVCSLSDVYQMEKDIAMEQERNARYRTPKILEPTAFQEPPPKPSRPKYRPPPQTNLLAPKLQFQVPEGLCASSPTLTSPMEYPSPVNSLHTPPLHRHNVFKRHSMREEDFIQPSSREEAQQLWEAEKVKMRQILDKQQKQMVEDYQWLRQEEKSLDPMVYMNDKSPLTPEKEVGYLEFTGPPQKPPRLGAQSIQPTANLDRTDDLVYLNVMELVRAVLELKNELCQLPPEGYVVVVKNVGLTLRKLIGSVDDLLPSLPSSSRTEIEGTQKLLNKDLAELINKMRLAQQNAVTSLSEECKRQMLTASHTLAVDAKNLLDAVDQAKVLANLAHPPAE
# protein kinases (human kinome) (Homo sapiens, UniProt Q00535), sequence (Q00535 whole entry): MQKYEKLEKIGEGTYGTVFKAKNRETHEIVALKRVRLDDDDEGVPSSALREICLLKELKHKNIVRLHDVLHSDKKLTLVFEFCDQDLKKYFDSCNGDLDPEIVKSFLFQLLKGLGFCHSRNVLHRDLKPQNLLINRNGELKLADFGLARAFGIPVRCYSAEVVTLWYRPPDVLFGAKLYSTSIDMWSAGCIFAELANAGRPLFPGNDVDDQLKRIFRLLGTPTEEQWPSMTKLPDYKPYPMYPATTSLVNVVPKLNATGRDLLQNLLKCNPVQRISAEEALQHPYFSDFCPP
compound,measurement,setting,value
O=C(COc1cccc2c1C(=O)N(C1CCC(=O)NC1=O)C2=O)NCCCCCCCN1CCc2cc(Nc3ncc(C4CC4)c(NCCCNC(=O)C4CCC4)n3)ccc2C1 (stereo not shown) [BSJ.04.178],logFC MARK4,[1]; experiment wp134,−0.993
same,logFC MARK4 (Q96L34-1),[1]; experiment wp134,−0.993
Cc1ncsc1-c1ccc([C@H](C)NC(=O)[C@@H]2C[C@@H](O)CN2C(=O)[C@@H](NC(=O)CCCCCN2CCc3cc(Nc4ncc(C5CC5)c(NCCCNC(=O)C5CCC5)n4)ccc3C2)C(C)(C)C)cc1 [BSJ.05.026],logFC MARK4,[1]; experiment wp195,−1.571
same,logFC MARK4 (Q96L34-1),[1]; Experiment wp195,−1.571
"CS(=O)(=O)Nc1cccc(-c2csc3cnc(Nc4ccc(N5CCN(CCCCCOc6cccc7c6C(=O)N(C6CCC(=O)NC6=O)C7=O)CC5)cc4)nc23)c1 (stereo not shown) [DB0614, N-(3-(2-((4-(4-(5-((2-(2,6-Dioxopiperidin-3-yl)-1,3-dioxoisoindolin-4-yl)oxy)pentyl)piperazin-1-yl)phenyl)amino)thieno[3,2-d]pyrimidin-7-yl)phenyl)methanesulfonamide]",logFC,[2],−1.425
same,logFC PTK2B,[2]; experiment wp045,−1.425
Cc1ccc(NC(=O)c2cccc(C(F)(F)F)c2)cc1N1Cc2cnc(Nc3ccc(N4CCN(CCCCCCOc5cccc6c5C(=O)N(C5CCC(=O)NC5=O)C6=O)CC4)nc3)nc2N(C)C1=O (stereo not shown) [DB0663],logFC,[2],−1.961
same,logFC PTK2B,[2]; experiment wp045,−1.961
same,logFC,[3]; [7],−0.6293
same,logFC MAPK14,[3]; experiment wp045,−0.6293
CC(C)(C)c1nc(-c2cccc(NS(=O)(=O)c3c(F)cccc3F)c2F)c(-c2ccnc(NCCOCCNC(=O)CCOCCOCCNc3cccc4c3C(=O)N(C3CCC(=O)NC3=O)C4=O)n2)s1 (stereo not shown) [DD.03.106],logFC CDK2 (P24941-1),"[4]; Experiment wp147, 2 uM",−0.4932
same,logFC CDK2 (P24941-1),"[4]; Experiment wp147, 4 uM",−0.5248
same,logFC CDK2 (P24941-1),[4]; experiment wp137,−0.3437
same,logFC CDK2 (P24941-1),"[4]; experiment wp137, direction of change down",−0.3437
same,logFC CDK2 (P24941-1),"[4]; experiment wp147, 1 uM",−0.3285
same,logFC CDK2 (P24941-1),"[4]; experiment wp147, 1 uM, direction of change down",−0.3285
same,logFC CDK2 (P24941-1),"[4]; experiment wp147, 2 uM, direction of change down",−0.4932
same,logFC CDK2 (P24941-1),"[4]; experiment wp147, 4 uM, direction of change down",−0.5248
Cc1ncsc1-c1ccc([C@H](C)NC(=O)[C@@H]2C[C@@H](O)CN2C(=O)[C@@H](NC(=O)CCOCCOCCN2CCN(c3ccc(Nc4ncc(Cl)c(Nc5ccccc5S(=O)(=O)C(C)C)n4)cc3)CC2)C(C)(C)C)cc1 [FMF.06.098.1],logFC CDK2 (P24941-1),[4]; Experiment wp108,−0.6501
same,logFC CDK2 (P24941-1),"[4]; experiment wp108, direction of change down",−0.6501
same,logFC CDK2 (P24941-1),[4]; experiment wp131,−0.8725
same,logFC CDK2 (P24941-1),"[4]; experiment wp131, direction of change down",−0.8725
same,logFC MARK4,[1]; experiment wp108,−0.9041
same,logFC MARK4,[1]; experiment wp114,−0.7224
same,logFC MARK4,[1]; experiment wp131,−1.111
same,logFC MARK4 (Q96L34-1),[1]; Experiment wp108,−0.9041
same,logFC MARK4 (Q96L34-1),[1]; experiment wp114,−0.7224
same,logFC MARK4 (Q96L34-1),[1]; experiment wp131,−1.111
Cc1cnc(Nc2ccc(N3CCN(CCCCCCC(=O)N[C@H](C(=O)N4C[C@H](O)C[C@H]4C(=O)N[C@@H](C)c4ccc(-c5scnc5C)cc4)C(C)(C)C)CC3)cc2)nc1Nc1cccc(S(=O)(=O)NC(C)(C)C)c1 [JWG.123],logFC MARK4,[1]; experiment wp195,−1.532
same,logFC MARK4 (Q96L34-1),[1]; Experiment wp195,−1.532
CCc1cnn2c(N(Cc3ccc(N)nc3)C(=O)CCOCCOCCOCCNC(=O)CNc3cccc4c3C(=O)N(C3CCC(=O)NC3=O)C4=O)cc(N3CCCC[C@H]3CCO)nc12 (stereo partly shown) [MFH.5.115.2],logFC TTK,[5],−0.3249
same,logFC TTK (P33981),[5],−0.3249
O=C1CCC(N2C(=O)c3cccc(NCCCCCCCCN4CCC(NC(=O)c5[nH]ncc5NC(=O)c5c(Cl)cccc5Cl)CC4)c3C2=O)C(=O)N1 (stereo not shown) [MFH.5.126.1],logFC TTK,[5],−0.4412
same,logFC TTK (P33981),[5],−0.4412
CS(=O)(=O)Nc1cccc(-c2csc3cnc(Nc4ccc(N5CCN(CCOCCOCCOc6cccc7c6C(=O)N(C6CCC(=O)NC6=O)C7=O)CC5)cc4)nc23)c1 (stereo not shown) [RSS0628],logFC,[2],−1.517
same,logFC PTK2B,[2]; experiment wp045,−1.517
Cc1ccc(C(=O)Nc2ccc(CN3CCN(CCCOCCOCCOCCNC(=O)COc4cccc5c4C(=O)N(C4CCC(=O)NC4=O)C5=O)CC3)c(C(F)(F)F)c2)cc1C#Cc1cnc2cccnn12 (stereo not shown) [SB1.G.187],logFC of CDK5,[6]; experiment wp056,−0.4804
same,logFC of CDK5,[6]; experiment wp103,−0.5924
same,logFC of CDK5,[6]; experiment wp105,−0.6053
same,logFC CDK5 (Q00535),"[6]; Experiment wp105, direction of change down",−0.6053
same,logFC CDK5 (Q00535),[6]; Experiment wp107,−0.6778
same,logFC CDK5 (Q00535),[6]; Experiment wp172,−0.8938
same,logFC CDK5 (Q00535),"[6]; experiment wp056, direction of change down",−0.4804
same,logFC CDK5 (Q00535),"[6]; experiment wp103, direction of change down",−0.5924
same,logFC CDK5 (Q00535),"[6]; experiment wp107, direction of change down",−0.6778
same,logFC CDK5 (Q00535),"[6]; experiment wp172, direction of change down",−0.8938
same,logFC of MAPK14,"[3]; Accession Q16539, experiment wp172",−0.5198
same,logFC,"[3]; MAPK14 (Q16539), experiment wp103",−0.83
same,logFC,"[3]; MAPK14 (Q16539), experiment wp107",−0.924
same,logFC,"[3]; MAPK14 (Q16539), experiment wp172",−0.5198
same,logFC MAPK14,[3]; experiment wp103,−0.83
same,logFC MAPK14,[3]; experiment wp107,−0.924
Cn1c(=O)c(-c2c(Cl)cccc2Cl)cc2cnc(Nc3ccc(OCCNC(=O)CCCCCCNC(=O)COc4cccc5c4C(=O)N(C4CCC(=O)NC4=O)C5=O)cc3)nc21 (stereo not shown) [SB1.G.192.1],logFC,[3]; [7],−0.8915 and −0.7293
same,logFC,"[3]; MAPK14 (Q16539), experiment wp131",−0.7463
same,logFC MAPK14,[3]; experiment wp071,−0.8915
same,logFC MAPK14,[3]; experiment wp081,−0.7293
same,logFC MAPK14,[3]; experiment wp131,−0.7463
CC(C)S(=O)(=O)c1ccccc1Nc1nc(Nc2ccc(N3CCN(CCOCCNC(=O)CNc4ccc5c(c4)C(=O)N(C4CCC(=O)NC4=O)C5=O)CC3)cc2)ncc1Cl (stereo not shown) [SK.3.93],logFC CDK2 (P24941-1),[4]; experiment wp016,−0.5433
same,logFC CDK2 (P24941-1),[4]; [8],−0.5433
same,logFC of CDK5,[6]; experiment wp016,−0.9703
same,logFC CDK5 (Q00535),[6]; [8],−0.9703
same,logFC,[2],−3.269
same,logFC PTK2B,[2]; experiment wp016,−3.269
Cc1ccc(C(=O)Nc2ccc(CN3CCN(CCOCCOCCNC(=O)CNc4cccc5c4C(=O)N(C4CCC(=O)NC4=O)C5=O)CC3)c(C(F)(F)F)c2)cc1C#Cc1cnc2cccnn12 (stereo not shown) [TL13.150],logFC of CDK5,[6]; experiment wp081,−0.3786
same,logFC CDK5 (Q00535),"[6]; experiment wp081, direction of change down",−0.3786
same,logFC,[3]; [7],−0.3738
same,logFC MAPK14,[3]; experiment wp081,−0.3738
